Several values for one entry are separate records, joined by “and”; a condition that tells them apart may be missing. Equal entries are not always repeated. Where two headings read alike, the source gives them in different places.
Experiment: TD-6450 phase I clinical study (SAD/MAD): pharmacokinetics
Assay type: in vivo, human
Details: for Cmax: read-out: Cmax Mean ± SD; for half-life: read-out: t1/2 Mean ± SD (converted)
Method: Primary and secondary outcomes were pre-defined as follows: Safety and tolerability as a primary outcome, pharmacokinetics as a secondary outcome. Safety and tolerability were evaluated using standard measures, including adverse event (AE) monitoring, clinical laboratory tests (hematology, serum chemistry, coagulation, and urinalysis), vital signs, physical examinations, and 12-lead electrocardiograms (ECGs). […]
This study was conducted in two parts, Part A (SAD) and Part B (MAD). For the Part A, the age of enrolled subjects ranged from 20 to 60 years, with a mean age range of 32.1 to 46.2 years. Most subjects were male (73 total subjects) and most were white (55 subjects) or black (22 subjects). For Part B of the study, ages ranged from 23 to 60 years with a similar mean age across treatment groups. Most subjects were male (25 total subjects) and all were either white (18 subjects) or black (12 subjects). For each part of the study, the mean body mass index (BMI) and creatinine clearance were similar across treatment groups. […] Part A: Healthy subjects were sequentially enrolled and randomly assigned to each dose cohort (up to 10 dose-ascending cohorts were planned, including a fed arm in the food effect cohort) to receive either a single dose of TD-6450 or placebo. For each dose cohort, 8 subjects were randomized in a 3:1 ratio (6 subjects received TD-6450 and 2 subjects received placebo). The starting dose of TD-6450 was 0.5 mg with a planned maximum dose of 1000 mg. Upon review of the 500-mg cohort PK data, the decision was made to not escalate to the 1000-mg cohort because of exposure saturation at ≥ 500 mg. The following doses were administered: 0.5 mg, 1.5 mg, 5 mg, 15 mg, 30 mg, 60 mg, 120 mg, 240 mg, and 500 mg. Part B: Healthy subjects were sequentially enrolled in 3 ascending dose cohorts (TD-6450 60 mg, 120 mg, and 240 mg) and randomly assigned to receive either TD-6450 or placebo as once daily doses for 14 days. For each dose cohort, 10 subjects were randomized in a 4:1 ratio (8 subjects received TD-6450 and 2 subjects received placebo). Blinded safety, tolerability, and available PK data after each dose cohort were reviewed by the Safety Data Review Committee (SDRC) before escalation to the next dosing cohort for both part A and B. Subjects of the clinical study were randomly assigned to each cohort. Randomizations codes were assigned to the subjects. All study subjects, study investigators, and the sponsor’s staff involved in the conduct of the study were blinded to treatment assignment. The only personnel who had access to the randomization code before database lock were: The pharmacist or pharmacy staff member who prepared drug or placebo capsules for administration to the subject according to the randomization code and the bioanalytical contract laboratory that analyzed the PK samples (plasma and urine).

[1] = Male subjects, SAD arm NCT02022306, Dose 30.00, 3 Hours
[2] = Male subjects, SAD arm NCT02022306, Dose 30.00, 4 Hours
[3] = Male subjects, SAD arm NCT02022306, Dose 30.00, 72 Hours
[4] = Male subjects, SAD arm NCT02022306, Dose 30.00, 96 Hours
[5] = Male subjects, SAD arm NCT02022306, Dose 30.00, 120 Hours
[6] = Male subjects, SAD arm NCT02022306, Dose 30.00, 144 Hours
[7] = Male subjects, SAD arm NCT02022306, Dose 30.00, 168 Hours
[8] = Male subjects, SAD arm NCT02022306, Dose 30.00, Predose
[9] = both sexes, human, plasma, oral, 1.5 mg, SAD 1.5 mg
[10] = both sexes, human, plasma, oral, 5 mg, SAD 5 mg
[11] = both sexes, human, plasma, oral, 15 mg, SAD 15 mg
[12] = both sexes, human, plasma, oral, 30 mg, SAD 30 mg

With `CNC(=O)N1C[C@@H](C)N(c2ccc(C(=O)Nc3ccc(-c4ccc(-c5c[nH]c([C@@H]6CCCN6C(=O)[C@@H](NC(=O)OC)C(C)C)n5)cc4)c(OC(F)(F)F)c3)cn2)C[C@@H]1C` [TD-6450] the Concentration (Female subjects, SAD arm NCT02022306, Dose 0.50, Predose) was 0 µg/mL, the Concentration (Female subjects, SAD arm NCT02022306, Dose 5.00, Predose) was 0 µg/mL and the Concentration (Female subjects, SAD arm NCT02022306, Dose 15.00, Predose) was 0 µg/mL. For the same compound, the Concentration (Female subjects, SAD arm NCT02022306, Dose 30.00, 3 Hours) was 0.0418 µg/mL, the Concentration (Female subjects, SAD arm NCT02022306, Dose 30.00, 4 Hours) was 0.0447 µg/mL and the Concentration (Female subjects, SAD arm NCT02022306, Dose 30.00, 6 Hours) was 0.0439 µg/mL. The Concentration (Female subjects, SAD arm NCT02022306, Dose 30.00, 8 Hours) was 0.0354 µg/mL, the Concentration (Female subjects, SAD arm NCT02022306, Dose 30.00, 12 Hours) was 0.0279 µg/mL and the Concentration (Female subjects, SAD arm NCT02022306, Dose 30.00, 24 Hours) was 0.0202 µg/mL. The Concentration (Female subjects, SAD arm NCT02022306, Dose 30.00, 48 Hours) was 0.0175 µg/mL, the Concentration (Female subjects, SAD arm NCT02022306, Dose 30.00, 72 Hours) was 0.0127 µg/mL and the Concentration (Female subjects, SAD arm NCT02022306, Dose 30.00, 96 Hours) was 0.00933 µg/mL. The Concentration (Female subjects, SAD arm NCT02022306, Dose 30.00, 120 Hours) was 0.00789 µg/mL, the Concentration (Female subjects, SAD arm NCT02022306, Dose 30.00, 144 Hours) was 0.00617 µg/mL and the Concentration (Female subjects, SAD arm NCT02022306, Dose 30.00, 168 Hours) was 0.00412 µg/mL. It also gave a Concentration (Female subjects, SAD arm NCT02022306, Dose 30.00, Predose) of 0 µg/mL, a Concentration (Female subjects, SAD arm NCT02022306, Dose 60.00, Predose) of 0 µg/mL and a Concentration (Male subjects, SAD arm NCT02022306, Dose 0.50, Predose) of 0 µg/mL. For the same compound, the Concentration (Male subjects, SAD arm NCT02022306, Dose 1.50, Predose) was 0 µg/mL, the Concentration (Male subjects, SAD arm NCT02022306, Dose 5.00, Predose) was 0 µg/mL and the Concentration (Male subjects, SAD arm NCT02022306, Dose 15.00, Predose) was 0 µg/mL. The Concentration [1] was 0.0161 µg/mL, the “Concentration (ng/ml)” value [1] was 14.80 ng/mL and the Concentration [2] was 0.0178 µg/mL. The “Concentration (ng/ml)” value [2] was 18.90 ng/mL, the Concentration (Male subjects, SAD arm NCT02022306, Dose 30.00, 6 Hours) was 0.0216 µg/mL and the Concentration (Male subjects, SAD arm NCT02022306, Dose 30.00, 8 Hours) was 0.0209 µg/mL. For the same compound, the Concentration (Male subjects, SAD arm NCT02022306, Dose 30.00, 12 Hours) was 0.0164 µg/mL, the Concentration (Male subjects, SAD arm NCT02022306, Dose 30.00, 24 Hours) was 0.0127 µg/mL and the Concentration (Male subjects, SAD arm NCT02022306, Dose 30.00, 48 Hours) was 0.00902 µg/mL. The Concentration [3] was 0.00745 µg/mL, the “Concentration (ng/ml)” value [3] was 9.39 ng/mL and the Concentration [4] was 0.00604 µg/mL. For the same compound, the “Concentration (ng/ml)” value [4] was 7.13 ng/mL, the Concentration [5] was 0.00498 µg/mL and the “Concentration (ng/ml)” value [5] was 5.80 ng/mL. For the same compound, the Concentration [6] was 0.00371 µg/mL, the “Concentration (ng/ml)” value [6] was 4.24 ng/mL and the Concentration [7] was 0.0033 µg/mL. The “Concentration (ng/ml)” value [7] was 3.28 ng/mL, the Concentration [8] was 0 µg/mL and the “Concentration (ng/ml)” value [8] was 0.00 ng/mL. The “Concentration (ng/ml)” value (Male subjects, SAD arm NCT02022306, Dose 60.00, 8 Hours) was 61.90 ng/mL and 92.80 ng/mL and 97.50 ng/mL and 65.40 ng/mL, the “Concentration (ng/ml)” value (Male subjects, SAD arm NCT02022306, Dose 60.00, Predose) was 0.00 ng/mL and the “Concentration (ng/ml)” value (Male subjects, SAD arm NCT02022306, Dose 120.00, Predose) was 0.00 ng/mL. The “Concentration (ng/ml)” value (Male subjects, SAD arm NCT02022306, Dose 240.00, Predose) was 0.00 ng/mL, the “Concentration (ng/ml)” value (Male subjects, SAD arm NCT02022306, Dose 500.00, 30 Minutes) was 2.54 ng/mL and 3.61 ng/mL and 2.21 ng/mL and the “Concentration (ng/ml)” value (Male subjects, SAD arm NCT02022306, Dose 500.00, Predose) was 0.00 ng/mL. It also gave a Cmax (both sexes, human, plasma, oral, 0.5 mg, SAD 0.5 mg) of 0.0005 ± 0.0001 µM, a Cmax [9] of 0.0015 ± 0.0004 µM and a half-life [9] of 84.3 h. For the same compound, the Cmax [10] was 0.00537 ± 0.0018 µM, the half-life [10] was 71.7 ± 5.2 h and the Cmax [11] was 0.021 ± 0.0079 µM. It also gave a half-life [11] of 77 ± 14.2 h, a Cmax [12] of 0.0374 ± 0.019 µM and a half-life [12] of 66.9 ± 9 h. The Cmax at 1 day (both sexes, human, plasma, oral, 60 mg, MAD 60 mg, day 1, read-out: Cmax Mean ± SD, D1) was 0.0974 µM, the Cmax at 14 day (both sexes, human, plasma, oral, 60 mg, MAD 60 mg, day 14, read-out: Cmax Mean ± SD, D14) was 0.398 ± 0.146 µM and the half-life at 14 day (both sexes, human, plasma, oral, 60 mg, MAD 60 mg, day 14, read-out: t1/2 Mean ± SD, D14 (converted)) was 62.3 ± 10 h.

From publication PMC10082216 (Nature Communications, 2023)
